The values below come from patent US12281149B2, “Modulators of G-protein coupled receptors” (priority 2021, dated 2025).

Holding throughout (type): cell-based
Assay [1] deals with T1, GIP receptor (Homo sapiens, UniProt P48546).
T1 sequence (P48546 22-466): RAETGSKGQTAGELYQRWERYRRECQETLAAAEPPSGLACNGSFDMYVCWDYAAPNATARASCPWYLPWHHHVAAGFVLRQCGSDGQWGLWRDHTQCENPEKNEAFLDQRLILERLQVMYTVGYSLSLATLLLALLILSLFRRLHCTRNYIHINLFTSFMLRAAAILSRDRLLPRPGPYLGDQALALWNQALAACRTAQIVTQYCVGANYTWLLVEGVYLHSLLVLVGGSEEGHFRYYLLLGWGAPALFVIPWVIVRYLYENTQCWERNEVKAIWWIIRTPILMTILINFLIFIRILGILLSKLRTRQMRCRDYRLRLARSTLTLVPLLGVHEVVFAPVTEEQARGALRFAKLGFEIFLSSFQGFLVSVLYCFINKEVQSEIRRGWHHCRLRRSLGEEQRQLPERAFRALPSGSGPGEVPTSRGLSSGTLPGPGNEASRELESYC
Kind of assay: HitHunter cAMP assay, GIP receptor. The settings on record: for EC50: CHO cells stably expressing GIP receptor, cAMP accumulation, 30 min, read-out: EC50 GIP-1R; for Emax: CHO cells, cAMP, normalized to maximum signal from GIP (high) and DMSO (low), read-out: Emax GIP-1R. (In general: cAMP levels reflect the balance of adenylyl cyclase and phosphodiesterase activity.)

For assay [2], the target named is T1, GIP receptor. Description: PathHunter β-arrestin assay, GIP receptor. Also noted: host or cells: PathHunter CHO-K1 GIPR β-Arrestin Cell Line. As to conditions: β-arrestin-2 recruitment, PathHunter CHO-K1 GIPR β-Arrestin Cell Line, 90 min at 37° C.; normalized to GIP; read-out: GIPR β Arrestin EC50. (Recruitment of arrestin is a read-out of receptor activation apart from second messengers.)

For assay [3], the target named is T2, GLP-1 receptor (Homo sapiens, UniProt P43220). Kind of assay: HitHunter cAMP assay, GLP-1 receptor. As to conditions: for EC50: CHO cells stably expressing human GLP-1 receptor, cAMP accumulation, 30 min, read-out: EC50 GLP-1R; for Emax: CHO cells, cAMP, normalized to maximum signal from GLP-1 (high) and DMSO (low), read-out: Emax GLP-1R.
T2 sequence (P43220 24-463): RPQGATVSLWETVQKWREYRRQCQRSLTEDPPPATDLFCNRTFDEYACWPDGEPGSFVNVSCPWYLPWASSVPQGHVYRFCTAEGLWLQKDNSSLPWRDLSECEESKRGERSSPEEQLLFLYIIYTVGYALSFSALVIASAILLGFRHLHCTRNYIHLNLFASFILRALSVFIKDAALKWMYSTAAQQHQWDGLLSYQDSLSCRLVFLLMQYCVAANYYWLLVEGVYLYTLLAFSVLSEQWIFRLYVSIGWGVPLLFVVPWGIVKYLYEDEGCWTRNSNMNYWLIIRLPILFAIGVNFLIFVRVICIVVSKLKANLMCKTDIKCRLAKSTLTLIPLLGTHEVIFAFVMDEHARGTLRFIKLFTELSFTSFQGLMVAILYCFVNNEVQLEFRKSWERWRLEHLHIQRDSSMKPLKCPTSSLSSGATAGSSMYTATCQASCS
Assay [4] concerns the target T2, GLP-1 receptor. Description: PathHunter β-arrestin assay, GLP-1 receptor. Details: host or cells: PathHunter CHO-K1 GLP1R β-Arrestin Cell Line. The settings on record: β-arrestin-2 recruitment, PathHunter CHO-K1 GLP1R β-Arrestin Cell Line, 90 min at 37° C.; normalized to GLP-1; read-out: GLP-1R β Arrestin EC50.

*1 amine or outer side, *2 acyl side, *3 side chain or, on linkers, in order; H or OH if unused. Where a SMILES comes first, the peptide text is derived from it. Side-chain parts run from the residue outwards. [ ]: non-standard residue; d: D form. The star is where a group is joined. Isobutyryl(2-(3-CN-5-F-Ph)) = CC(C)(C(=O)*)c1cc(F)cc(C#N)c1; C20 diacid = O=C(O)CCCCCCCCCCCCCCCCCCC(=O)*; γGlu = O=C(O)[C@H](CCC(=O)[*:2])N[*:1]; X18 = O=C(C1(c2cccc(F)c2)CCCC1)*; X76 = CC(C)(C(=O)*)c1cncnc1; β3hD = NC(CC(=O)O)CC(=O)O; AEEA = NCCOCCOCC(=O)O; Aib = CC(C)(N)C(=O)O; βAla = NCCC(=O)O

Turning to `CC[C@H](C)[C@H](NC(=O)[C@H](CC(C)C)NC(=O)[C@H](Cc1c[nH]c2ccccc12)NC(=O)[C@H](CCC(N)=O)NC(=O)[C@@H](NC(=O)[C@H](Cc1ccccc1)NC(=O)[C@H](C)NC(=O)[C@H](CCCCNC(=O)COCCOCCNC(=O)COCCOCCNC(=O)CC[C@H](NC(=O)CCCCCCCCCCCCCCCCCCC(=O)O)C(=O)O)NC(=O)[C@H](CCC(N)=O)NC(=O)[C@H](C)NC(=O)[C@@H](NC(=O)[C@H](CCCCN)NC(=O)[C@H](CC(=O)O)NC(=O)[C@H](CC(C)C)NC(=O)C(C)(C)NC(=O)[C@@H](NC(=O)[C@H](CO)NC(=O)[C@H](Cc1ccc(O)cc1)NC(=O)[C@H](CC(=O)O)NC(=O)[C@H](CO)NC(=O)[C@@H](NC(=O)[C@H](Cc1ccccc1)NC(=O)[C@@H](NC(=O)CNC(=O)[C@H](CCC(=O)O)NC(=O)CCNC(=O)C1(c2cccc(F)c2)CCCC1)[C@@H](C)O)[C@@H](C)O)[C@@H](C)CC)[C@@H](C)CC)C(C)C)C(=O)N[C@@H](C)C(=O)NCC(=O)NCC(=O)N1CCC[C@H]1C(=O)N[C@@H](CO)C(=O)N[C@@H](CO)C(=O)NCC(=O)N[C@@H](C)C(=O)N1CCC[C@H]1C(=O)N1CCC[C@H]1C(=O)N1CCC[C@H]1C(=O)N[C@@H](CO)C(N)=O` [Compound 214] ({X18-βAla}-EGTFTSDYSI[Aib]LDKIAQK([AEEA-AEEA-γGlu-C20 diacid])AFVQWLIAGGPSSGAPPPS-NH2), the half-maximal effective concentration (EC50) in assay [1] is 0.1 to 1 nM; in assay [2] it was over 1000 nM; in assay [3] it was 0.1 to 1 nM; in assay [4], over 1000 nM. The figures for the Emax in assay [1] and in assay [3] were 101% and 97%, respectively.
With `CC[C@H](C)[C@H](NC(=O)[C@H](CO)NC(=O)[C@H](Cc1ccc(O)cc1)NC(=O)[C@H](CC(=O)O)NC(=O)[C@H](CO)NC(=O)[C@@H](NC(=O)[C@](C)(Cc1ccccc1F)NC(=O)[C@@H](NC(=O)CNC(=O)[C@H](CCC(=O)O)NC(=O)CCNC(=O)C1(c2ccc(Cl)cc2)CCCC1)[C@@H](C)O)[C@@H](C)O)C(=O)N[C@@H](Cc1ccc(O)cc1)C(=O)N[C@@H](CC(C)C)C(=O)N[C@@H](CC(=O)O)C(=O)N[C@@H](CCCCN)C(=O)N[C@@H](CCC(N)=O)C(=O)N[C@@H](C)C(=O)N[C@@H](C)C(=O)NC(C)(C)C(=O)N[C@@H](CCC(=O)O)C(=O)N[C@@H](Cc1ccccc1)C(=O)N[C@H](C(=O)N[C@@H](CC(N)=O)C(=O)N[C@@H](Cc1c[nH]c2ccccc12)C(=O)N[C@@H](CC(C)C)C(=O)N[C@@H](CC(C)C)C(=O)N[C@@H](C)C(=O)NCC(=O)NCC(=O)N1CCC[C@H]1C(=O)N[C@@H](CO)C(=O)N[C@@H](CO)C(=O)NCC(=O)N[C@@H](C)C(=O)N1CCC[C@H]1C(=O)N1CCC[C@H]1C(=O)N1CCC[C@H]1C(=O)N[C@@H](CO)C(=O)N[C@@H](CCCCNC(=O)COCCOCCNC(=O)COCCOCCNC(=O)CC[C@H](NC(=O)CCCCCCCCCCCCCCCCCCC(=O)O)C(=O)O)C(N)=O)C(C)C` [Compound 141], the half-maximal effective concentration (EC50) was 0.1 to 1 nM in assay [1], under 1000 nM in assay [2], 0.1 to 1 nM in assay [3] and over 1000 nM in assay [4]. Moreover, the Emax came out at 108% in assay [1] and 97% in assay [3].
With `CC[C@H](C)[C@H](NC(=O)[C@H](CO)NC(=O)[C@H](CCCCNC(=O)COCCOCCNC(=O)COCCOCCNC(=O)CC[C@H](NC(=O)CCCCCCCCCCCCCCCCCCC(=O)O)C(=O)O)NC(=O)[C@H](CC(=O)O)NC(=O)[C@H](CO)NC(=O)[C@@H](NC(=O)[C@H](Cc1ccccc1)NC(=O)[C@@H](NC(=O)CNC(=O)[C@H](CCC(=O)O)NC(=O)CCNC(=O)C(C)(C)c1cc(F)cc(C#N)c1)[C@@H](C)O)[C@@H](C)O)C(=O)N[C@@H](Cc1ccc(O)cc1)C(=O)N[C@@H](CC(C)C)C(=O)N[C@@H](CC(=O)O)C(=O)N[C@@H](CCCCN)C(=O)N[C@@H](CCC(N)=O)C(=O)N[C@@H](C)C(=O)N[C@@H](C)C(=O)NC(C)(C)C(=O)N[C@@H](CCC(=O)O)C(=O)N[C@@H](Cc1ccccc1)C(=O)N[C@H](C(=O)N[C@@H](CC(N)=O)C(=O)N[C@@H](Cc1c[nH]c2ccccc12)C(=O)N[C@@H](CC(C)C)C(=O)N[C@@H](CC(C)C)C(=O)N[C@@H](C)C(=O)NCC(=O)NCC(=O)N1CCC[C@H]1C(=O)N[C@@H](CO)C(=O)N[C@@H](CO)C(=O)NCC(=O)N[C@@H](C)C(=O)N1CCC[C@H]1C(=O)N1CCC[C@H]1C(=O)N1CCC[C@H]1C(=O)N[C@@H](CO)C(N)=O)C(C)C` [Compound 167] ({Isobutyryl(2-(3-CN-5-F-Ph))-βAla}-EGTFTSDK([AEEA-AEEA-γGlu-C20 diacid])SIYLDKQAA[Aib]EFVNWLLAGGPSSGAPPPS-NH2), the EC50 in assay [1] is 10 to 100 nM; in assay [2] it was over 1000 nM; in assay [3], 0.1 to 1 nM; in assay [4] it was over 1000 nM. Further, the Emax is 91% in assay [1] and 108% in assay [3].
Regarding `CC[C@H](C)[C@H](NC(=O)[C@H](CC(C)C)NC(=O)[C@H](Cc1c[nH]c2ccccc12)NC(=O)[C@H](CCC(N)=O)NC(=O)[C@@H](NC(=O)[C@H](Cc1ccccc1)NC(=O)[C@H](C)NC(=O)[C@H](CCCCNC(=O)COCCOCCNC(=O)COCCOCCNC(=O)CC[C@H](NC(=O)CCCCCCCCCCCCCCCCCCC(=O)O)C(=O)O)NC(=O)[C@H](CCC(N)=O)NC(=O)[C@H](C)NC(=O)[C@@H](NC(=O)[C@H](CCCCN)NC(=O)[C@H](CC(=O)O)NC(=O)[C@H](CC(C)C)NC(=O)C(C)(C)NC(=O)[C@@H](NC(=O)[C@H](CO)NC(=O)[C@H](Cc1ccc(O)cc1)NC(=O)[C@H](CC(=O)O)NC(=O)[C@H](CO)NC(=O)[C@@H](NC(=O)[C@H](Cc1ccccc1)NC(=O)[C@@H](NC(=O)CNC(=O)[C@H](CCC(=O)O)NC(=O)CCNC(=O)C(C)(C)c1cncnc1)[C@@H](C)O)[C@@H](C)O)[C@@H](C)CC)[C@@H](C)CC)C(C)C)C(=O)N[C@@H](C)C(=O)NCC(=O)NCC(=O)N1CCC[C@H]1C(=O)N[C@@H](CO)C(=O)N[C@@H](CO)C(=O)NCC(=O)N[C@@H](C)C(=O)N1CCC[C@H]1C(=O)N1CCC[C@H]1C(=O)N1CCC[C@H]1C(=O)N[C@@H](CO)C(N)=O` [Compound 161] ({X76-βAla}-EGTFTSDYSI[Aib]LDKIAQK([AEEA-AEEA-γGlu-C20 diacid])AFVQWLIAGGPSSGAPPPS-NH2), the concentration giving a half-maximal response (EC50) in assay [1] was 10 to 100 nM; in assay [2], over 1000 nM; in assay [3] it was 0.1 to 1 nM; in assay [4], over 1000 nM. Further, the Emax in assay [1] was found to be 94%; in assay [3], 113%.
Take `CC[C@H](C)[C@H](NC(=O)[C@H](CC(C)C)NC(=O)[C@H](Cc1c[nH]c2ccccc12)NC(=O)[C@H](CCC(N)=O)NC(=O)[C@@H](NC(=O)[C@H](Cc1ccccc1)NC(=O)[C@H](C)NC(=O)[C@H](CCCCNC(=O)COCCOCCNC(=O)COCCOCCNC(=O)CC[C@H](NC(=O)CCCCCCCCCCCCCCCCCCC(=O)O)C(=O)O)NC(=O)[C@H](CCC(N)=O)NC(=O)[C@H](C)NC(=O)[C@@H](NC(=O)[C@H](CCCCN)NC(=O)[C@H](CC(=O)O)NC(=O)[C@H](CC(C)C)NC(=O)C(C)(C)NC(=O)[C@@H](NC(=O)[C@H](CO)NC(=O)[C@H](Cc1ccc(O)cc1)NC(=O)[C@H](CC(=O)O)NC(=O)[C@H](CO)NC(=O)[C@@H](NC(=O)[C@H](Cc1ccccc1)NC(=O)[C@@H](NC(=O)CNC(=O)C[C@H](CC(=O)O)NC(=O)CCNC(=O)C(C)(C)c1cc(F)cc(C#N)c1)[C@@H](C)O)[C@@H](C)O)[C@@H](C)CC)[C@@H](C)CC)C(C)C)C(=O)N[C@@H](C)C(=O)NCC(=O)NCC(=O)N1CCC[C@H]1C(=O)N[C@@H](CO)C(=O)N[C@@H](CO)C(=O)NCC(=O)N[C@@H](C)C(=O)N1CCC[C@H]1C(=O)N1CCC[C@H]1C(=O)N1CCC[C@H]1C(=O)N[C@@H](CO)C(N)=O` [Compound 115] ({Isobutyryl(2-(3-CN-5-F-Ph))-βAla}-[β3hD]GTFTSDYSI[Aib]LDKIAQK([AEEA-AEEA-γGlu-C20 diacid])AFVQWLIAGGPSSGAPPPS-NH2): the EC50 in assay [1] was 100 to 1000 nM; in assay [2], over 1000 nM; in assay [3], 1 to 10 nM; in assay [4], over 1000 nM. In addition, the Emax in assay [1] came out at 111%; in assay [3], 120%.

For orientation: EC50 means the concentration at which the effect is half-maximal. For orientation: Emax means the size of the effect at its maximum, as opposed to the concentration needed.
